Experimental data taken from patent US20240101576A1, “HETEROCYCLIC INHIBITORS OF EGFR AND/OR HER2, FOR USE IN THE TREATMENT OF CANCER” (Scorpion Therapeutics, Inc., priority 2020, published 2024).

Tests used:
Format in all cases: cell-based
[1] = biological target: T1, EGFR exon 20 FQEA Ins A763_V764 (Ba/F3 cells) (Homo sapiens, UniProt P00533, INS763FQEA); assay: Inhibitor activity on EGFR-dependent cell growth (CellTiter-Glo, 72 h), Ba/F3 EGFR exon 20 FQEA Ins; details: read-out: BaF3 FQEA IC50
T1 construct: expressed in transfected cells; host or cells: Ba/F3 (murine pro-B cells), retroviral transduction, puromycin selection, IL3-independent pool
In short: (§1)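 Mutant EGFR drives IL3-independent growth of engineered Ba/F3 pools. L858R cells go in at 400/well, L858R/C797S at 600, and exon 19del or FQEA insertion at 800. After 72 h with compound, plates are equilibrated 15 min at RT. Reagent is added 1:1, followed by 30 min and a luminescence read.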

[2] = biological target: T2, EGFR exon 20 NPG Ins D770_N771 (Ba/F3 cells) (Homo sapiens, UniProt P00533, INS770NPG); assay: Inhibitor activity on EGFR phosphorylation (pEGFR AlphaLISA, 2 h), Ba/F3 EGFR exon 20 NPG Ins
T2 construct: expressed in transfected cells; host or cells: Ba/F3 (murine pro-B cells), retroviral transduction, puromycin selection, IL3-independent pool
In short: (§2)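 Steps: seed cells (Ba/F3 50K, CUTO14 12.5K per well); add 3-fold, 10-point compound dilution; incubate 2 h; lyse 1 hr; add acceptor then donor beads (1.5 hrs, RT, dark); read AlphaLISA signal for IC50.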

[3] = biological target: T3, EGFR exon 20 ASV Ins V769_D770 (Ba/F3 cells) (Homo sapiens, UniProt P00533, INS769ASV); assay: Inhibitor activity on EGFR phosphorylation (pEGFR AlphaLISA, 2 h), Ba/F3 EGFR exon 20 ASV Ins; details: EGFR phosphorylation, AlphaLISA, 2 hours; read-out: ASV IC50 (pEGFR)
T3 construct: expressed in transfected cells; host or cells: Ba/F3 (murine pro-B cells), retroviral transduction, puromycin selection, IL3-independent pool
In short: as §2

EGFR WT (Ba/F3 cells) = biological target: T4, EGFR WT (Ba/F3 cells) (Homo sapiens, UniProt P00533); assay: Inhibitor activity on EGFR-dependent cell growth (CellTiter-Glo, 72 h), Ba/F3 EGFR WT; details: read-out: BaF3 WT IC50
T4 construct: expressed in transfected cells; host or cells: Ba/F3 (murine pro-B cells), retroviral transduction, puromycin selection, maintained with EGF
In short: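 This growth assay used Ba/F3 cells that depend on wild-type EGFR and are kept in EGF without IL3. Compounds were made up as 10 mM DMSO stocks and diluted 3-fold over 10 points. 120 nL went onto 600 cells/well. After 72 hours, 40 μL CellTiter-Glo was added and luminescence read on EnVision after 30 min.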

[4] = biological target: T5, EGFR exon 19del (Ba/F3 cells) (Homo sapiens, UniProt P00533); assay: Inhibitor activity on EGFR phosphorylation (pEGFR AlphaLISA, 2 h), Ba/F3 EGFR exon 19del; details: read-out: Del19 IC50 (pEGFR)
In short: as §2

EGFR L858R (Ba/F3 cells) [5] = biological target: T6, EGFR L858R (Ba/F3 cells) (Homo sapiens, UniProt P00533, L858R); assay: Inhibitor activity on EGFR phosphorylation (pEGFR AlphaLISA, 2 h), Ba/F3 EGFR L858R
T6 construct: expressed in transfected cells; host or cells: Ba/F3 (murine pro-B cells), retroviral transduction, puromycin selection, IL3-independent pool
In short: as §2

[6] = biological target: T2, EGFR exon 20 NPG Ins D770_N771 (Ba/F3 cells); assay: Inhibitor activity on EGFR-dependent cell growth (CellTiter-Glo, 72 h), Ba/F3 EGFR exon 20 NPG Ins; details: read-out: BaF3 NPG IC50
In short: (§3)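 IC50s derive from a sigmoidal dose–response fit of CellTiter-Glo signal. The signal was normalised between […]-treated cells and cell-free medium. Ba/F3 mutant-EGFR cells, seeded at 400–800/well depending on the line, had 72 h of exposure to a 10-point, 3-fold compound series.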

[7] = biological target: T7, EGFR L858R/C797S (Ba/F3 cells) (Homo sapiens, UniProt P00533, C797S/L858R); assay: Inhibitor activity on EGFR phosphorylation (pEGFR AlphaLISA, 2 h), Ba/F3 EGFR L858R/C797S
T7 construct: expressed in transfected cells; host or cells: Ba/F3 (murine pro-B cells), retroviral transduction, puromycin selection, IL3-independent pool
In short: as §2

EGFR (CUTO14 cells) = EGFR (CUTO14 cells) (Homo sapiens, UniProt P00533); assay: Inhibitor activity on EGFR phosphorylation (pEGFR AlphaLISA, 2 h), CUTO14 cells
In short: as §2

[8] = biological target: T8, EGFR exon 20 SVD Ins D770_N771 (Ba/F3 cells) (Homo sapiens, UniProt P00533, INS770SVD); assay: Inhibitor activity on EGFR phosphorylation (pEGFR AlphaLISA, 2 h), Ba/F3 EGFR exon 20 SVD Ins
T8 construct: expressed in transfected cells; host or cells: Ba/F3 (murine pro-B cells), retroviral transduction, puromycin selection, IL3-independent pool
Description: Example B. Inhibitor Activity on EGFR phosphorylation (pEGFR)
EGFR mutant Ba/F3 cells were generated by transduction with retrovirus containing vectors expressing EGFR L858R, EGFR exon 19del, EGFR L858R/C797S, EGFR exon 20 NPG Ins D770_N771, EGFR exon 20 ASV Ins V769_D770, or EGFR exon 20 SVD Ins D770_N771 genes along with a puromycin selection marker. Transduced cells are selected with puromycin for 7 days and are then be transferred into culture media without Interleukin 3 (IL3). Surviving cells are confirmed to express EGFR by Western blot and maintained as a pool. CUTO14 cells were obtained from Dr. Robert C. Doebele at the University of Colorado. The IC50 date are included in Table 6 and Table 7.
1.1 Cells are harvested from flask into cell culture medium and the cell number counted.
1.2 Cells are diluted with culture medium to the desired density and 40 μL of cell suspension is added into each well of 384-well cell culture plate and the seeding density is 50K cells/well (Ba/F3) or 12.5K cells/well (CUTO14).
2 Compound Preparation and Treatment
2.1 Test compounds are dissolved to 10 mM in a DMSO stock solution. 45 μL of stock solution is transferred to a 384 polypropylene plate (pp-plate). Perform 3-fold, 10-point dilution via transferring 15 μL compound into 30 μL DMSO using a TECAN (EVO200) liquid handler.
2.2 Spin plates at room temperature at 1,000 RPM for 1 minute.
2.3 Transfer 5 nL of diluted compound from compound source plate into the cell plate.
2.4 After compound treatment for 2 hours, perform pEGFR detection by AlphaLISA for compound treatment plates as described in “Detection” section.
3 Detection by pEGFR AlphaLISA (Perkin-Elmer)
3.1 Plates are removed from incubators and equilibrated at room temperature for 10 minutes, and media was removed
3.2 10 μL of lysis buffer is added and plates shaken at 600 rpm for 1 hr.
3.3 Prepare acceptor mix just before use and dispense 5 μL of acceptor mix to all the wells. Shake 350 rpm for Ihr in the dark
3.4 Prepare donor mix under low light conditions prior to use. Dispense 5 μL of donor mix to all the wells. Mix well on the shaker, seal and wrap in aluminum foil and incubate 1.5 hrs at room temperature in the dark
3.5 Transfer 18.5 μL mixture to OptiPlate 384, and read using an Envision. The IC50 date were included in Table 6 and Table 7.

EGFR L858R (Ba/F3 cells) [9] = biological target: T6, EGFR L858R (Ba/F3 cells); assay: Inhibitor activity on EGFR-dependent cell growth (CellTiter-Glo, 72 h), Ba/F3 EGFR L858R; details: read-out: BaF3 L858R IC50
In short: as §1

[10] = biological target: T8, EGFR exon 20 SVD Ins D770_N771 (Ba/F3 cells); assay: Inhibitor activity on EGFR-dependent cell growth (CellTiter-Glo, 72 h), Ba/F3 EGFR exon 20 SVD Ins; details: read-out: BaF3 SVD IC50
In short: as §3

[11] = biological target: T5, EGFR exon 19del (Ba/F3 cells); assay: Inhibitor activity on EGFR-dependent cell growth (CellTiter-Glo, 72 h), Ba/F3 EGFR exon 19del; details: Ba/F3 EGFR exon 19del cell growth, read-out: BaF3 Del19 IC50
In short: as §1

[12] = biological target: T3, EGFR exon 20 ASV Ins V769_D770 (Ba/F3 cells); assay: Inhibitor activity on EGFR-dependent cell growth (CellTiter-Glo, 72 h), Ba/F3 EGFR exon 20 ASV Ins; details: read-out: BaF3 ASV IC50
In short: as §3

[13] = biological target: T7, EGFR L858R/C797S (Ba/F3 cells); assay: Inhibitor activity on EGFR-dependent cell growth (CellTiter-Glo, 72 h), Ba/F3 EGFR L858R/C797S; details: read-out: BaF3 L858R/C797S IC50
In short: as §1

T4 sequence (P00533 25-1210): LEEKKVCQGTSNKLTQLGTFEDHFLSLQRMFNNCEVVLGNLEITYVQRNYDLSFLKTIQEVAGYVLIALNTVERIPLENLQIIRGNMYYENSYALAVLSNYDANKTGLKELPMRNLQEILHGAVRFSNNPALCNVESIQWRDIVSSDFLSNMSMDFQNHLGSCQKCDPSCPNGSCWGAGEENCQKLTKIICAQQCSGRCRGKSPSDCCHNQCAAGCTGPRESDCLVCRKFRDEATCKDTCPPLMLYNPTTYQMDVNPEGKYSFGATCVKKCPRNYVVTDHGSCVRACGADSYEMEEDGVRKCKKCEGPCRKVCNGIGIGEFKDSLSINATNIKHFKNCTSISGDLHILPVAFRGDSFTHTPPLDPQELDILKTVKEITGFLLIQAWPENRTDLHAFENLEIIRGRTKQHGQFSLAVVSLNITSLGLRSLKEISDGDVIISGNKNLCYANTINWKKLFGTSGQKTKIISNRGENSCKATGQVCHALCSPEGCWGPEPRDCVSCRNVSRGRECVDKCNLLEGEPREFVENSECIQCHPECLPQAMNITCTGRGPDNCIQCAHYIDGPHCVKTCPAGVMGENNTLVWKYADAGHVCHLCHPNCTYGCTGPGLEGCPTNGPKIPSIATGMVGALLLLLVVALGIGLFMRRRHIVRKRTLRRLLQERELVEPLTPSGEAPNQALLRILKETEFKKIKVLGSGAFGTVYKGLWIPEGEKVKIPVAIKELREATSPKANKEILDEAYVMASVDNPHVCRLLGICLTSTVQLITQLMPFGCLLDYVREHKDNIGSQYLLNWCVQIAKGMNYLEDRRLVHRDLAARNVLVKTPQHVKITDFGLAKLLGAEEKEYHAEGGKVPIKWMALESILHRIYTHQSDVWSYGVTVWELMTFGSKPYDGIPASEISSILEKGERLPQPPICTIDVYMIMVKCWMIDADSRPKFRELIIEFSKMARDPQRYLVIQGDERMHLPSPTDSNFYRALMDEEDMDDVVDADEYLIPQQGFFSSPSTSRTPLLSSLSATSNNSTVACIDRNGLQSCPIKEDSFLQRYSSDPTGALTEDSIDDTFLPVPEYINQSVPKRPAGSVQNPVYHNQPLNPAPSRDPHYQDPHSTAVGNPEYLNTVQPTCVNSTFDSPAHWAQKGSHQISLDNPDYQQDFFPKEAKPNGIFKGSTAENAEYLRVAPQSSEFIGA
T7 sequence (P00533 25-1210 C797S/L858R): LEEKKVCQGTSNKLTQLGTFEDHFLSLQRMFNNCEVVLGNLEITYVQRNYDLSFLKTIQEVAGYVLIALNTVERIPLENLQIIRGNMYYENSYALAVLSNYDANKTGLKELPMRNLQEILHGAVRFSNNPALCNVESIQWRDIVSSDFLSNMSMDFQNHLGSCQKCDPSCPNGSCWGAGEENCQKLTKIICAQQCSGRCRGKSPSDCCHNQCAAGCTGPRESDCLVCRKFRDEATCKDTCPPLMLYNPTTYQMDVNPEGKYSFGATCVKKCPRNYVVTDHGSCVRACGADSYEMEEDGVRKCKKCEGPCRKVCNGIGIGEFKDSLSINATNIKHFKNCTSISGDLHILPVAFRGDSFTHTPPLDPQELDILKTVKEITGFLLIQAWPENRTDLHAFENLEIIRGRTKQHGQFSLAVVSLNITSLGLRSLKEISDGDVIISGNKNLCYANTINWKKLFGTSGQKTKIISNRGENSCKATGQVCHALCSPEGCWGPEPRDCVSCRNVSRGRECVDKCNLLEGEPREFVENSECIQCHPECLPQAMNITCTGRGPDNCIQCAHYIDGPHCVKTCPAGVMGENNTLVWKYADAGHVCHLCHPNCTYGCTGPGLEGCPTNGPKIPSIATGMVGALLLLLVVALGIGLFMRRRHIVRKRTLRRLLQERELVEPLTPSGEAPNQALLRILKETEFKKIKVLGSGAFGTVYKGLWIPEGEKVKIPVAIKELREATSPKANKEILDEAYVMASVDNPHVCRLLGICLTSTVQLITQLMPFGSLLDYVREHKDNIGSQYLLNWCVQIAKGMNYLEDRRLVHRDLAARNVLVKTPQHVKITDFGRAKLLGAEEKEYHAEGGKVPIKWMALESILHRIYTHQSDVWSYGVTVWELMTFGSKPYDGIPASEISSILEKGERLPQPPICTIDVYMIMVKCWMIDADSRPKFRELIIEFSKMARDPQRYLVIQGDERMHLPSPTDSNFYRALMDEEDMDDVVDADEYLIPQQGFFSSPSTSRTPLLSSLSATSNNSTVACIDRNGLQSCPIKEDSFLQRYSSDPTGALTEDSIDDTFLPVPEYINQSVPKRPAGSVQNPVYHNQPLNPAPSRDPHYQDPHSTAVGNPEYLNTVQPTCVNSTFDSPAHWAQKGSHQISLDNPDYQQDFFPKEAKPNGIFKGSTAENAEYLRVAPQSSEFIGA
T5 sequence (P00533 with tags, fused parts or gaps DEL746-750): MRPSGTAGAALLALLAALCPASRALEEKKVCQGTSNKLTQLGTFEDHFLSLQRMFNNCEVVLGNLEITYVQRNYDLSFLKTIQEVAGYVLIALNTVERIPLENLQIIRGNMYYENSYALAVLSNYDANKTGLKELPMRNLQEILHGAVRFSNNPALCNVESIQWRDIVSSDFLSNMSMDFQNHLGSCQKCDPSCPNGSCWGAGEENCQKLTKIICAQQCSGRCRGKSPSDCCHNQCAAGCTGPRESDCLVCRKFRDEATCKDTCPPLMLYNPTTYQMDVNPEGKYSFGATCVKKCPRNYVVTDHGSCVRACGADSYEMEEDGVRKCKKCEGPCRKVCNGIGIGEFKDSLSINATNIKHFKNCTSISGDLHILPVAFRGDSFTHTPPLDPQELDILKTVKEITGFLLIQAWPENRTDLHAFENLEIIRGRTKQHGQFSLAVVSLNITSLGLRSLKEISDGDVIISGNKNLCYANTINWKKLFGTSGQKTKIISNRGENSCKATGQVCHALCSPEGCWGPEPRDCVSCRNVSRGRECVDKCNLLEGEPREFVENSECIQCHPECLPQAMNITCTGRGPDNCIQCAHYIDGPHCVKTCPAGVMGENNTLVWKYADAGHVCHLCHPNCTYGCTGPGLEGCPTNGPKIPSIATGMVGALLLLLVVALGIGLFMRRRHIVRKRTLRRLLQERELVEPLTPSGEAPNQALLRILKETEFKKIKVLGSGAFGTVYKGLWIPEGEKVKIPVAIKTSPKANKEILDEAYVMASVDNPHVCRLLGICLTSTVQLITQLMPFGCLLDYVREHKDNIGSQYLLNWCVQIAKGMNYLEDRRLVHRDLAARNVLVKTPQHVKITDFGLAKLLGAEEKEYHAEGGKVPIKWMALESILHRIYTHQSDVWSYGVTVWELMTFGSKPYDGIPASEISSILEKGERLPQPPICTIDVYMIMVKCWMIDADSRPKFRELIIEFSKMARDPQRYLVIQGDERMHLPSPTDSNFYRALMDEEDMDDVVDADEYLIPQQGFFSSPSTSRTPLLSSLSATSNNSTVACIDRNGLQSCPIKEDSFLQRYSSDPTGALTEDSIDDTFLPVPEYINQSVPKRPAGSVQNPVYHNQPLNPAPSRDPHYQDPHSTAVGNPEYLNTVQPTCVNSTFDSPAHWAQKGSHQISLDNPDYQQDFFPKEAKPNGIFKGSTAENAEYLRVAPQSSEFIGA
T6 sequence (P00533 25-1210 L858R): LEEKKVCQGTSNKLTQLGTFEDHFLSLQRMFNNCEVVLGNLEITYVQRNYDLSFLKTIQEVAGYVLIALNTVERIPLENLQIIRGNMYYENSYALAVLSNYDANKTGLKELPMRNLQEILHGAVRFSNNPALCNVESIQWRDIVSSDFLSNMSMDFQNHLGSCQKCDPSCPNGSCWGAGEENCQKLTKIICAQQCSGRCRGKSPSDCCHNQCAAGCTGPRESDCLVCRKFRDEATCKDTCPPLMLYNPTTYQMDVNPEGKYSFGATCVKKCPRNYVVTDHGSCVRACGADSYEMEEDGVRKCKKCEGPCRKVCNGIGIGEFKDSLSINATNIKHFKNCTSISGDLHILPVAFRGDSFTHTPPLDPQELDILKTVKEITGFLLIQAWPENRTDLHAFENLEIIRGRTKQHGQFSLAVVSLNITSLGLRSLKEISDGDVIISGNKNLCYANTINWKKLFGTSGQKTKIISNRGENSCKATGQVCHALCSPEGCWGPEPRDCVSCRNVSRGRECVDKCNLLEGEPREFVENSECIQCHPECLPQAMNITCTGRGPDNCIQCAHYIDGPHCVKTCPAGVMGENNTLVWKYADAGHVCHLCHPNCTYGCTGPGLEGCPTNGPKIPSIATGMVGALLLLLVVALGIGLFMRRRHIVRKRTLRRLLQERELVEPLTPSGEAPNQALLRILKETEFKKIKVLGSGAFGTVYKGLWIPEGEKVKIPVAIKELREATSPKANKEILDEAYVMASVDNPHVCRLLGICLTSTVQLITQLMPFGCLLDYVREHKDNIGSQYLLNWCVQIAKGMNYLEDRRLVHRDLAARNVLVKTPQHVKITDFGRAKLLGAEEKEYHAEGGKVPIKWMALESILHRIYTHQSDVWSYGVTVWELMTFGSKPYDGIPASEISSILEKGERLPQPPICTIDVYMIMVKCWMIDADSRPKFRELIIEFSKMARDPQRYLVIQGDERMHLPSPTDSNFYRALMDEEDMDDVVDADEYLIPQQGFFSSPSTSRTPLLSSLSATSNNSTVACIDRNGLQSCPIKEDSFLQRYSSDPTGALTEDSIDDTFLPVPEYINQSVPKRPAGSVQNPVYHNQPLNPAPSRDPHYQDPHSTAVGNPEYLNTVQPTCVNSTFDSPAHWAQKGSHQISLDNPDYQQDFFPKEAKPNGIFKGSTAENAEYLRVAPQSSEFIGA

Compound	IC50 [1]	IC50 [2]	IC50 [3]	IC50 (EGFR WT (Ba/F3 cells))	IC50 [4]	IC50 (EGFR L858R (Ba/F3 cells) [5])	IC50 [6]	IC50 [7]	IC50 (EGFR (CUTO14 cells))	IC50 [8]	IC50 (EGFR L858R (Ba/F3 cells) [9])	IC50 [10]	IC50 [11]	IC50 [12]	IC50 [13]
COc1c(F)cccc1Nc1c(-c2ccncc2F)[nH]c2c1C(=O)NC[C@@H]2CC1COCCO1 (stereo in doubt) [Compound 525, (7S)-7-[(2R)-1,4-dioxan-2-ylmethyl]-3-[(3-fluoro-2-methoxyphenyl)amino]-2-(3-fluoropyridin-4-yl)-1H,5H,6H,7H-pyrrolo[3,2-c]pyridin-4-one]	< 100 nM	< 100 nM	< 100 nM	100 to 1000 nM	< 100 nM	< 100 nM	< 100 nM	< 100 nM	< 100 nM	< 100 nM	< 100 nM	< 100 nM	< 100 nM	< 100 nM	< 100 nM
COc1c(F)cccc1Nc1c(-c2ccncc2F)[nH]c2c1C(=O)NCC2C[C@@H]1COCCO1 (single isomer, unassigned) [Compound 566]	< 100 nM	< 100 nM	< 100 nM	< 100 nM	< 100 nM	< 100 nM	< 100 nM	< 100 nM	< 100 nM	< 100 nM	< 100 nM	< 100 nM	< 100 nM	< 100 nM	< 100 nM
COCC[C@@H]1CNC(=O)c2c1[nH]c(-c1ccncc1F)c2Nc1cccc(F)c1OC [421b]	< 100 nM	< 100 nM	< 100 nM	100 to 1000 nM	< 100 nM	< 100 nM	< 100 nM	< 100 nM	< 100 nM	< 100 nM	< 100 nM	< 100 nM	< 100 nM	< 100 nM	< 100 nM
COc1c(Cl)cccc1Nc1c(-c2ccnc(C)n2)[nH]c2c1C(=O)NC[C@@H]2CC1COCCO1 (stereo in doubt) [Compound 551, (7S)-3-[(3-chloro-2-methoxyphenyl)amino]-7-[(2R)-1,4-dioxan-2-ylmethyl]-2-(2-methylpyrimidin-4-yl)-1H,5H,6H,7H-pyrrolo[3,2-c]pyridin-4-one]	100 to 1000 nM	< 100 nM	< 100 nM	100 to 1000 nM	< 100 nM	< 100 nM	< 100 nM	< 100 nM	< 100 nM	< 100 nM	< 100 nM		< 100 nM		< 100 nM
